Experimental data from US20030207843A1, “Treatment of drug-resistant human immunodeficiency virus infection” (priority 1999, published 2003).
Several values for one entry are separate records, joined by “and”; a condition that tells them apart may be missing. Identical values can stand only once. Like-named read-outs stand apart in the source and are kept apart here.

Key:
HIV-1LAI M164I/4XAZT = assay: p24 reduction assay in MT-2 cells, M164I/4XAZT; format: cell-based; conditions: Table 8
Procedure: (§1) Cells. MT-2 cells (AIDS Research and Reference Reagent Program, National Institute of Allergy and Infectious Diseases, National Institutes of Health) were maintained in RPMI 1640 supplemented with 10% fetal bovine serum (FBS; JRH Biosciences, Lenexa, Kans.), 10 mM HEPES buffer, 50 IU/ml penicillin and 50 μg/ml streptomycin.
(§2) Antiviral Susceptibility Assays. The antiviral activity of each compound was determined by inoculating MT-2 cells with HIV-1LAI at a multiplicity of infection (MOI) of 0.01 TCID50/cell, followed by incubation in the presence of three-fold serial drug dilutions (3 wells per dilution) (see Mellors, et. al., Antimicrob. Agents Chemother. 39:1087-1092). Five or seven days after infection, culture supernatants were harvested, lysed with 0.5% triton-X 100 and assayed for p24 antigen concentration using a commercial ELISA assay (DuPont, NEN Products, Wilmington, Del.). The antiviral activity of the compounds is expressed as the IC50, which is the concentration required to inhibit 50% of p24 antigen production. The fold-resistance of a test virus is calculated by dividing the IC50 of the test virus by the IC50 of the HIV-1LAI control virus.
Generation of Mutant Recombinant HIV-1. […]
(§3) Recombinant viruses containing the mutations selected by invention compounds were also evaluated for their susceptibility to AZT, as shown in Table 8.

HIV-1LAI S117T = assay: p24 reduction assay in MT-2 cells, S117T; format: cell-based
Procedure: as §1, §2
(§4) Generation of Mutant Recombinant HIV-1. HIV-1 containing the desired mutations were generated by oligonucleotide directed mutagenesis (Altered Sites II, Promega) as previously described (Mellors, et. al., Molecular Pharm. 41:446-451). After mutagenesis, mutant RT was subcloned into the pxxHIV-1LAI cloning vector using the silent XmaI and XbaI restriction sites located at the 5′ and 3′ ends of RT. Clones were DNA sequenced to verify the presence of the desired mutation(s) and electroporated into MT-2 cells as described above to generate infectious mutant recombinant HIV-1.
(§5) Mutant RT was generated via oligonucleotide-directed mutagenesis and ligated into the pXXHIV-1LAI cloning vector. Cloning was facilitated by the presence of two silent restriction sites at the 5′ and 3′ ends (Xma1 and Xba1, respectively) of pXXHIV-1LAI RT. Infectious mutant recombinant HIV-1 was generated by electroporating MT-2 cells with mutated pXXHIV-1LAI clones. The presence of the desired mutations was verified by DNA sequencing.
DNA sequencing identified two mutations in RT: S117T and L214F.
as §3

HIV-1LAI W88G/L214F = assay: p24 reduction assay in MT-2 cells, W88G/L214F; format: cell-based
Procedure: as §1, §2, §4, §5
EB-PFA resistant virus was selected a second time after 15 passages. This virus also contained the mutations W88G and L214F.
as §3

HIV-1LAI M164I/L214F = assay: p24 reduction assay in MT-2 cells, M164I/L214F; format: cell-based
Procedure: as §1, §2, §4, §5
DNA sequencing of the RT gene (amino acid (AA) 1 to 350) from MB-PFA resistant virus identified three mutations: V75L, M164I and L214F. Recombinant viruses encoding the V75L, M164I and L214F mutations were constructed and tested for susceptibility to MB-PFA.
as §3

[1] = system: HIV-1LAI 4XAZT/Q161L/H208Y; assay: p24 reduction assay in MT-2 cells, 4XAZT/Q161L/H208Y; format: cell-based; conditions: Table 7; for EC50: 4XAZTQ161L/H208Y; for Fold-resistance: 4XAZTQ161L/H208Y relative to wild type virus
Procedure: as §1, §2, §4, §5
Invention compounds were also evaluated against a panel of HIV-1LAI derived recombinants resistant to PFA and the PFA invention compounds, as shown in Table 7.

[2] = system: 11163p3 (multinucleoside resistant clinical isolate); assay: p24 reduction assay in MT-2 cells, 11163p3; format: cell-based, HIV-1; conditions: Table 4; for EC50: 11163p3, mean ± SD; for Fold-resistance: 11163p3 relative to wild type virus
Procedure: as §1, §2
The MNR panel consisted of a virus containing the mutations V75I, F77L, F116Y and […], a virus containing the T69S[SA insert], and a clinical isolate carrying the classic MNR genotype (62V/751/77L/116Y/151M). Each of the PFA invention compounds retained potency against these viruses with fold resistance values of <2.

[3] = system: HIV-1LAI selected with EB-PFA, passage 15 (W88G, L214F); assay: Susceptibility of virus selected in vitro with EB-PFA; format: cell-based
Procedure: as §2
Selection of Resistant Viruses. […] Viral cytopathic effects (CPE) were monitored daily. […] The passaged virus was monitored regularly for a reduction in susceptibility to the compounds by determining the EC50 relative to unpassaged HIV-1LAI (Mellors, et. al., Antimicrob. Agents Chemother. 39:1087-1092). […]

[4] = system: HIV-1LAI selected with MB-PFA, passage 15; assay: Susceptibility of virus selected in vitro with MB-PFA; format: cell-based
Procedure: as §2
Selection of Resistant Viruses. Selections were initiated by inoculating 1.0×10^6 MT-2 cells at an MOI of 0.1 with plasmid derived HIV-1LAI which had been passaged as cell-free virus 10 times in MT-2 cells in the absence of compound (see Bazmi, et. al., Antimicrobial Agents and Chemotherapy 44:1783-1788). Cells were pretreated with drug for two hours prior to inoculation with virus. For each selection, the starting concentration was the IC50 of the compound, and the selective pressure (i.e. drug concentration) was doubled every three passages. Viral cytopathic effects (CPE) were monitored daily. At 2+CPE (≧2 syncitia per 100× field) cell free virus supernatant was harvested and used to initiate a new cycle of infection in fresh MT-2 cells. The passaged virus was monitored regularly for a reduction in susceptibility to the compounds by determining the EC50 relative to unpassaged HIV-1LAI (Mellors, et. al., Antimicrob. Agents Chemother. 39:1087-1092).
Genetic Analyses. Virions were pelleted from culture supernatants by centrifugation at 25,000×g for 1 hour. Total RNA was extracted from the virus pellet using TRIZOL® Reagent (Gibco BRL, Grand Island, N.Y.) and resuspended in diethyl pyrocarbonate-treated sterile water. […]

[5] = system: recombinant HIV-1 with V75L alone or in combination with L214F or M164I; assay: p24 reduction assay in MT-2 cells, V75L recombinants; format: cell-based; conditions: Example 6
Procedure: as §2
as §4, with “Clones were DNA sequenced to verify the presence of the desired mutation(s) and electroporated into MT-2 cells as described above to generate infectious mutant recombinant HIV-1.” left out

[6] = Human immunodeficiency virus 1, MT2

`Cc1cn([C@H]2C[C@H](N=[N+]=[N-])[C@@H](CO)O2)c(=O)[nH]c1=O` [AZT, 3′-Azido-3′-deoxythymidine] gave an EC50 (HIV-1LAI M164I/4XAZT; Human immunodeficiency virus 1, MT2, M164I/4XAZT, read-out: AZT EC50) of 0.043 ± 0.022 µM, a Fold resistance (HIV-1LAI M164I/4XAZT; M164I/4XAZT relative to wild type virus) of 1.1 and an EC50 (HIV-1LAI S117T; Human immunodeficiency virus 1, MT2, Table 8, S117T, read-out: AZT EC50) of 0.017 ± 0.007 µM. It also gave a Fold resistance (HIV-1LAI S117T; Table 8, S117T relative to wild type virus) of 0.8, an EC50 (HIV-1LAI W88G/L214F; Human immunodeficiency virus 1, MT2, Table 8, W88G/L214F, read-out: AZT EC50) of 0.015 ± 0.015 µM and a Fold resistance (HIV-1LAI W88G/L214F; Table 8, W88G/L214F relative to wild type virus) of 0.7. For the same compound, the EC50 (HIV-1LAI M164I/L214F; Human immunodeficiency virus 1, MT2, Table 8, M164I/L214F, read-out: AZT EC50) was 0.008 ± 0.003 µM and the Fold resistance (HIV-1LAI M164I/L214F; Table 8, M164I/L214F relative to wild type virus) was 0.4.
For `CCCCCCCCCCCCCCCCCCOC[C@@H](O)COP(=O)(O)C(=O)O` [B-PFA, 1-O-octadecyl-sn-glycero-3-PFA], the EC50 [1] was 6.2 µM, the Fold-resistance [1] was 0.85 (2.4) and the EC50 [2] was 1.1 ± 0.53 µM. The Fold-resistance [2] was “(0.6)”.
`CCCCCCCCCCCCCCCCCCOC[C@H](COP(=O)(O)C(=O)O)OCC` [EB-PFA, 1-O-octadecyl-2-O-ethyl-sn-glycero-3-PFA] was tested, and the EC50 [1] was 2.02 µM, the Fold-resistance [1] was 0.54 (2.6) and the Fold resistance (HIV-1LAI W88G/L214F; Example 6, recombinant virus W88G plus L214F) was 15.5 fold. For the same compound, the EC50 (HIV-1LAI W88G/L214F; Example 6, recombinant virus W88G plus L214F, read-out: EC50) was 9.1 µM, the EC50 [2] was 0.5 ± 0.06 µM and the Fold-resistance [2] was “(0.8)”. The EC50 ([3]; Table 6, passage 15 (W88G, L214F)) was 3.7 µM and the Fold resist. ([3]; Table 6, passage 15, relative to passage 0) was 41 and 41.1.
In the case of `CCCCCCCCCCCCCCCCCCOC[C@H](COP(=O)(O)C(=O)O)OC` [MB-PFA, 1-O-octadecyl-2-O-methyl-sn-glycero-3-PFA], the Fold-resistance [1] is reported as 0.14 (2.7), the Fold resistance ([4]; Example 6, repeated selection, after 15 passages (M164I and L214 mutations, not V75L)) is reported as 31 fold and the EC50 ([4]; Table 6, MB-PFA-selected virus, passage 15 (V75L, M164I, L214F)) is reported as 2.16 µM. The Fold resist. ([4]; Table 6, MB-PFA-selected virus, passage 15, relative to passage 0) was 27 and 30.9, the EC50 [2] was 0.4 ± 0.28 µM and the Fold-resistance [2] was “(0.9)”. It also gave a Fold resistance [5] of less than 3 fold, a Fold resistance (HIV-1LAI M164I/L214F; Example 6, recombinant virus with M164I and L214F) of 9.3 fold and an EC50 (HIV-1LAI M164I/L214F; Example 6, recombinant virus with M164I and L214F, read-out: EC50) of 8.1 µM.
For `O=C(O)P(=O)(O)O` [PFA, phosphonoformate, reference compound], the Fold resistance (HIV-1LAI S117T; {}) was 4.7 fold, the EC50 [1, 6] was 43.1 µM and the Fold-resistance [1] was 17.50 (2.4). The EC50 [2, 6] was 15.5 ± 5.04 µM and the Fold-resistance [2] was “(0.9)”.
